Measured values published in PubChem BioAssay AID602311 (The Scripps Research Institute Molecular Screening Center, 2012).
Calls of active or inactive are those of the source. The rule behind the calls is not given here.

How the values were obtained:
Test in all cases: ABPP selectivity across brain serine hydrolases – biochemical, gel-based competitive ABPP, mouse brain membrane, set 1, selectivity assay for DAGLb inhibitor project, late-stage follow-up (AID 602311)
FAAH = conditions: gel-based competitive ABPP fluorescence, at 10 µM, stronger effect = higher value
[1] = target: Monoacylglycerol lipase ABHD6 (Mus musculus) (UniProt Q8R2Y0); conditions: gel-based competitive ABPP fluorescence, at 10 µM, stronger effect = higher value
APEH = conditions: gel-based competitive ABPP fluorescence, at 10 µM, stronger effect = higher value
MAGL = conditions: gel-based competitive ABPP fluorescence, at 10 µM, stronger effect = higher value
KIAA1363 = conditions: gel-based competitive ABPP fluorescence, at 10 µM, stronger effect = higher value
LYPLA2 = conditions: gel-based competitive ABPP fluorescence, at 10 µM, stronger effect = higher value
ABHD12 = conditions: gel-based competitive ABPP fluorescence, at 10 µM, stronger effect = higher value
[2] = target: Acyl-protein thioesterase 1 (Mus musculus) (UniProt P97823); conditions: gel-based competitive ABPP fluorescence, LYPLA1, at 10 µM, stronger effect = higher value
Sequence of Acyl-protein thioesterase 1 (Mus musculus) (P97823 whole entry, looked up): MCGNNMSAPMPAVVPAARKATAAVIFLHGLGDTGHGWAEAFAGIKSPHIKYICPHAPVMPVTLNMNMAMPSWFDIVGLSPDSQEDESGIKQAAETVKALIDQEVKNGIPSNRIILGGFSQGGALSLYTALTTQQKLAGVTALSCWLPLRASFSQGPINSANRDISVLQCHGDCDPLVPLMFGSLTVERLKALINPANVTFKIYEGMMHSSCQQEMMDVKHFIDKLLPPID

Sequence of Monoacylglycerol lipase ABHD6 (Mus musculus) (Q8R2Y0 whole entry, looked up): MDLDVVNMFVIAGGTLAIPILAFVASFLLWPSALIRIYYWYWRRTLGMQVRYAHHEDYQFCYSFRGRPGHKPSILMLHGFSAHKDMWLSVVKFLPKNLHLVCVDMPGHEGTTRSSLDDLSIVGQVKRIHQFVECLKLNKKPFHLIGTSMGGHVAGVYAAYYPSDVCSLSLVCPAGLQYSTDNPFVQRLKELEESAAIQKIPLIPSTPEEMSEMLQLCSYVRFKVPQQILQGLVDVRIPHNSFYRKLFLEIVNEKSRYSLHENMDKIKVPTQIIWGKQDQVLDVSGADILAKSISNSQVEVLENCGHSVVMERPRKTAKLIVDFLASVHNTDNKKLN

O=C(N1CCCCC1Cc1ccccc1)n1cc(-c2ccc(-c3ccc4c(c3)OCO4)cc2)nn1 (stereo not drawn)
inhibition (FAAH): 50%
inhibition [1]: 90%
inhibition (APEH): 0% (inactive)
inhibition (MAGL): 0% (inactive)
inhibition (KIAA1363): 0% (inactive)
inhibition (LYPLA2): 0% (inactive)
inhibition (ABHD12): 0% (inactive)
inhibition [2]: 0% (inactive)

O=C(N1CCCCC1Cc1ccccc1)n1ncc(C(O)(c2ccccc2)c2ccccc2)n1 (stereo not drawn)
inhibition (FAAH): 0% (inactive)
inhibition [1]: 85%
inhibition (APEH): 0% (inactive)
inhibition (MAGL): 0% (inactive)
inhibition (KIAA1363): 0% (inactive)
inhibition (LYPLA2): 0% (inactive)
inhibition (ABHD12): 0% (inactive)
inhibition [2]: 0% (inactive)

O=C(N1CCCCC1Cc1ccccc1)n1cc(-c2ccc(-c3cccc(CO)c3)cc2)nn1 (stereo not drawn)
inhibition (FAAH): 40% (inactive)
inhibition [1]: 90%
inhibition (APEH): 0% (inactive)
inhibition (MAGL): 10% (inactive)
inhibition (KIAA1363): 0% (inactive)
inhibition (LYPLA2): 0% (inactive)
inhibition (ABHD12): 0% (inactive)
inhibition [2]: 0% (inactive)

O=C(c1ccc(-c2cn(C(=O)N3CCCCC3Cc3ccccc3)nn2)cc1)N1CCCCC1 (stereo not drawn)
inhibition (FAAH): 55%
inhibition [1]: 98%
inhibition (APEH): 0% (inactive)
inhibition (MAGL): 0% (inactive)
inhibition (KIAA1363): 0% (inactive)
inhibition (LYPLA2): 25% (inactive)
inhibition (ABHD12): 0% (inactive)
inhibition [2]: 25% (inactive)

O=C(N1CCCCC1Cc1ccccc1)n1cc(-c2cccc(-c3ccccc3)c2)nn1 (stereo not drawn)
inhibition (FAAH): 65%
inhibition [1]: 85%
inhibition (APEH): 0% (inactive)
inhibition (MAGL): 80%
inhibition (KIAA1363): 0% (inactive)
inhibition (LYPLA2): 0% (inactive)
inhibition (ABHD12): 0% (inactive)
inhibition [2]: 0% (inactive)

O=C(N1CCCCC1Cc1ccccc1)n1cc(-c2ccc(-c3ccccc3OC(F)(F)F)cc2)nn1 (stereo not drawn)
inhibition (FAAH): 45% (inactive)
inhibition [1]: 85%
inhibition (APEH): 0% (inactive)
inhibition (MAGL): 60%
inhibition (KIAA1363): 25% (inactive)
inhibition (LYPLA2): 0% (inactive)
inhibition (ABHD12): 0% (inactive)
inhibition [2]: 0% (inactive)

O=C(N(CCc1ccccc1)Cc1ccco1)n1cc(-c2ccc(OC(F)(F)F)cc2)nn1
inhibition (FAAH): 95%
inhibition [1]: 95%
inhibition (APEH): 0% (inactive)
inhibition (MAGL): 10% (inactive)
inhibition (KIAA1363): 55%
inhibition (LYPLA2): 0% (inactive)
inhibition (ABHD12): 0% (inactive)
inhibition [2]: 0% (inactive)

O=C(N1CCCCC1Cc1ccccc1)n1cc(-c2ccc(-c3ccccc3CO)cc2)nn1 (stereo not drawn)
inhibition (FAAH): 55%
inhibition [1]: 95%
inhibition (APEH): 0% (inactive)
inhibition (MAGL): 95%
inhibition (KIAA1363): 0% (inactive)
inhibition (LYPLA2): 20% (inactive)
inhibition (ABHD12): 10% (inactive)
inhibition [2]: 20% (inactive)

O=C(N1CCCCC1Cc1ccccc1)n1cc(-c2ccc(OC(F)(F)F)cc2)nn1 (stereo not drawn)
inhibition (FAAH): 65%
inhibition [1]: 90%
inhibition (APEH): 0% (inactive)
inhibition (MAGL): 40% (inactive)
inhibition (KIAA1363): 40% (inactive)
inhibition (LYPLA2): 0% (inactive)
inhibition (ABHD12): 0% (inactive)
inhibition [2]: 0% (inactive)

O=C(N1CCCCC1Cc1ccccc1)n1cc(-c2ccc(-c3cccc(C(F)(F)F)c3)cc2)nn1 (stereo not drawn)
inhibition (FAAH): 65%
inhibition [1]: 85%
inhibition (APEH): 0% (inactive)
inhibition (MAGL): 1% (inactive)
inhibition (KIAA1363): 10% (inactive)
inhibition (LYPLA2): 0% (inactive)
inhibition (ABHD12): 0% (inactive)
inhibition [2]: 0% (inactive)

O=C(N1CCCCC1Cc1ccccc1)n1cc(-c2ccc(-c3ccc(C(F)(F)F)cc3)cc2)nn1 (stereo not drawn)
inhibition (FAAH): 55%
inhibition [1]: 90%
inhibition (APEH): 0% (inactive)
inhibition (MAGL): 10% (inactive)
inhibition (KIAA1363): 60%
inhibition (LYPLA2): 0% (inactive)
inhibition (ABHD12): 0% (inactive)
inhibition [2]: 0% (inactive)

CC(C)(C)OC(=O)NCCCCCN(CCc1ccccc1)C(=O)n1cc(-c2ccc(OC(F)(F)F)cc2)nn1
inhibition (FAAH): 0% (inactive)
inhibition [1]: 95%
inhibition (APEH): 0% (inactive)
inhibition (MAGL): 10% (inactive)
inhibition (KIAA1363): 0% (inactive)
inhibition (LYPLA2): 0% (inactive)
inhibition (ABHD12): 0% (inactive)
inhibition [2]: 0% (inactive)

CC(C)CN(CCc1ccccc1)C(=O)n1cc(-c2ccc(OC(F)(F)F)cc2)nn1
inhibition (FAAH): 0% (inactive)
inhibition [1]: 90%
inhibition (APEH): 0% (inactive)
inhibition (MAGL): 0% (inactive)
inhibition (KIAA1363): 0% (inactive)
inhibition (LYPLA2): 0% (inactive)
inhibition (ABHD12): 0% (inactive)
inhibition [2]: 0% (inactive)

O=C(N1CCCCC1Cc1ccccc1)n1cc(-c2ccc(-c3ccccc3Cl)cc2)nn1 (stereo not drawn)
inhibition (FAAH): 30% (inactive)
inhibition [1]: 95%
inhibition (APEH): 0% (inactive)
inhibition (MAGL): 10% (inactive)
inhibition (KIAA1363): 20% (inactive)
inhibition (LYPLA2): 0% (inactive)
inhibition (ABHD12): 0% (inactive)
inhibition [2]: 0% (inactive)

Cc1ccccc1-c1ccc(-c2cn(C(=O)N3CCCCC3Cc3ccccc3)nn2)cc1 (stereo not drawn)
inhibition (FAAH): 30% (inactive)
inhibition [1]: 98%
inhibition (APEH): 0% (inactive)
inhibition (MAGL): 0% (inactive)
inhibition (KIAA1363): 0% (inactive)
inhibition (LYPLA2): 0% (inactive)
inhibition (ABHD12): 0% (inactive)
inhibition [2]: 0% (inactive)

O=C(N1CCCCC1Cc1ccccc1)n1cc(-c2ccc(-c3ccccc3C(F)(F)F)cc2)nn1 (stereo not drawn)
inhibition (FAAH): 40% (inactive)
inhibition [1]: 80%
inhibition (APEH): 0% (inactive)
inhibition (MAGL): 1% (inactive)
inhibition (KIAA1363): 0% (inactive)
inhibition (LYPLA2): 0% (inactive)
inhibition (ABHD12): 0% (inactive)
inhibition [2]: 0% (inactive)

O=C(N1CCCCC1Cc1ccccc1)n1ncc(-c2ccc(OC(F)(F)F)cc2)n1 (stereo not drawn)
inhibition (FAAH): 98%
inhibition [1]: 85%
inhibition (APEH): 0% (inactive)
inhibition (MAGL): 0% (inactive)
inhibition (KIAA1363): 90%
inhibition (LYPLA2): 0% (inactive)
inhibition (ABHD12): 0% (inactive)
inhibition [2]: 0% (inactive)

O=C(N1CCCCC1c1ccccc1)n1cc(C(O)(c2ccccc2)c2ccccc2)nn1 (stereo not drawn)
inhibition (FAAH): 55%
inhibition [1]: 100%
inhibition (APEH): 95%
inhibition (MAGL): 0% (inactive)
inhibition (KIAA1363): 100%
inhibition (LYPLA2): 100%
inhibition (ABHD12): 0% (inactive)
inhibition [2]: 100%

O=C(N1CCCCC1Cc1ccccc1)n1cc(-c2ccc(-c3ccoc3)cc2)nn1 (stereo not drawn)
inhibition (FAAH): 40% (inactive)
inhibition [1]: 98%
inhibition (APEH): 0% (inactive)
inhibition (MAGL): 10% (inactive)
inhibition (KIAA1363): 0% (inactive)
inhibition (LYPLA2): 0% (inactive)
inhibition (ABHD12): 0% (inactive)
inhibition [2]: 0% (inactive)

O=C(N1CCCCC1Cc1ccccc1)n1cc(-c2ccc(Br)cc2)nn1 (stereo not drawn)
inhibition (FAAH): 90%
inhibition [1]: 90%
inhibition (APEH): 0% (inactive)
inhibition (MAGL): 90%
inhibition (KIAA1363): 0% (inactive)
inhibition (LYPLA2): 0% (inactive)
inhibition (ABHD12): 0% (inactive)
inhibition [2]: 0% (inactive)

O=C(N1CCCCC1Cc1ccccc1)n1cc(-c2ccc(-c3ccc(OC(F)(F)F)cc3)cc2)nn1 (stereo not drawn)
inhibition (FAAH): 45% (inactive)
inhibition [1]: 90%
inhibition (APEH): 0% (inactive)
inhibition (MAGL): 0% (inactive)
inhibition (KIAA1363): 55%
inhibition (LYPLA2): 0% (inactive)
inhibition (ABHD12): 0% (inactive)
inhibition [2]: 0% (inactive)

O=C(N1CCCCC1Cc1ccccc1)n1cc(-c2ccc(-c3ccccc3)cc2)nn1 (stereo not drawn)
inhibition (FAAH): 0% (inactive)
inhibition [1]: 95%
inhibition (APEH): 0% (inactive)
inhibition (MAGL): 0% (inactive)
inhibition (KIAA1363): 0% (inactive)
inhibition (LYPLA2): 0% (inactive)
inhibition (ABHD12): 0% (inactive)
inhibition [2]: 0% (inactive)

COc1ccccc1-c1ccc(-c2cn(C(=O)N3CCCCC3Cc3ccccc3)nn2)cc1 (stereo not drawn)
inhibition (FAAH): 10% (inactive)
inhibition [1]: 85%
inhibition (APEH): 0% (inactive)
inhibition (MAGL): 70%
inhibition (KIAA1363): 0% (inactive)
inhibition (LYPLA2): 0% (inactive)
inhibition (ABHD12): 0% (inactive)
inhibition [2]: 0% (inactive)

O=C(c1ccc(-c2ccc(-c3cn(C(=O)N4CCCCC4Cc4ccccc4)nn3)cc2)cc1)N1CCCCC1 (stereo not drawn)
inhibition (FAAH): 10% (inactive)
inhibition [1]: 85%
inhibition (APEH): 0% (inactive)
inhibition (MAGL): 0% (inactive)
inhibition (KIAA1363): 10% (inactive)
inhibition (LYPLA2): 0% (inactive)
inhibition (ABHD12): 0% (inactive)
inhibition [2]: 0% (inactive)

O=C(N1CCCCC1Cc1ccccc1)n1cc(-c2cc(F)cc(F)c2)nn1 (stereo not drawn)
inhibition (FAAH): 98%
inhibition [1]: 90%
inhibition (APEH): 0% (inactive)
inhibition (MAGL): 95%
inhibition (KIAA1363): 85%
inhibition (LYPLA2): 50%
inhibition (ABHD12): 0% (inactive)
inhibition [2]: 50%

O=C(N1CCCCC1Cc1ccccc1)n1cc(-c2ccccc2-c2ccccc2)nn1 (stereo not drawn)
inhibition (FAAH): 98%
inhibition [1]: 80%
inhibition (APEH): 0% (inactive)
inhibition (MAGL): 75%
inhibition (KIAA1363): 0% (inactive)
inhibition (LYPLA2): 10% (inactive)
inhibition (ABHD12): 0% (inactive)
inhibition [2]: 10% (inactive)
